From patent US20250388602A1 (Genase Therapeutics B.V., priority 2022, published 2025)
Like-named read-outs stand apart in the source and are kept apart here.

What was measured:
recombinant human DHODH = recombinant human DHODH (Homo sapiens (Human), UniProt Q02127); test: DHODH enzyme assay (Assay A), DCIP absorbance; type: biochemical; conditions: bins ≥10 nM-<100 nM and <10 nM; read-out: IC50 DHODH inhibition activity
Method: Inhibition of human dihydroorotate dehydrogenase (DHODH) by example compounds as described herein was determined using one of two assays as described below.
DHODH enzyme assays were performed with 6 nM recombinant human DHODH (purified essentially as described by Walse et al., Biochemistry, 47, 8929-8936 (2008)). The reaction mixture consisted of 1 mM DL-dihydroorotic acid (#D7003, Sigma-Aldrich), 100 μM 3,4-dimethoxy-5-methyl-p-benzoquinone (#D9150, Sigma-Aldrich), and 100 μM 2,6-dichlorophenolindophenol sodium salt (DCIP) (#D1878, Sigma-Aldrich) in enzyme buffer (50 mM Tris-HCl pH 8.0, 0.1% Triton X-100, 150 mM KCl). A stock solution of 20 mM DCIP was prepared in enzyme buffer and filtered through Whatman paper just before use. Reactions were performed in a total volume of 100 μL, consisting of 1 μL of compound, 49 μL of enzyme and 50 μL of reaction mixture. Loss in absorbance by chromogen DCIP was measured at 595 nm following a 70 minute incubation at 32° C.

MOLM-13 cells = test: MOLM-13 cell viability (Assay B), Cell Titer-Glo; type: cell-based; conditions: for IC50: Homo sapiens, read-out: IC50 MOLM13 inhibition activity
Method: MOLM-13 cells (an acute myeloid leukemia cell line) were plated in RPMI supplied with 10% FBS and 1% Pen/Strep in 384-well plates at 1,000 cells per well on day 0. On day 1, treatment of the cells with compound (concentration range 10E-5 and 6E-12 M) was initiated in the presence or absence of 100 μM uridine. After 72 hours incubation of the cells with or without test compound, the number of viable cells per well was assessed by Cell Titer-Glo Luminescent Cell Viability Assay (Promega, Madison, WI, USA). […] Each condition was tested in duplicate and the potency of test compounds was determined from two independent experiments.

in vitro [1] = conditions: for HLM % remaining: % remaining at 60 min, 1 μM; for half-life at 1 μM: both, human
Method: Human Liver Microsomal metabolic stability: The microsomal metabolic stability assay utilized pooled human liver microsomes (mixed gender, BD Gentest), with supplemented cofactors NADPH and UDPGA (Solarbio S&T Co., LTD). Two separate experiments were performed as follows: • a) With cofactors (NADPH & UDPGA): 25 μL of 10 mM NADPH and 25 μL of 20 mM UDPGA were added to 197.5 μL of reaction solution (phosphate buffer (final concentration in assay 100 mM), MgCl2 (final concentration in assay (5 mM)), alamethacin (final concentration in assay 0.025 mg/mL) and microsomes (final concentration in assay 0.5 mg/mL). • b) Without cofactors (NADPH & UDPGA): 50 μL of H2O was added to 197.5 μL of reaction solution.
The mixture was pre-warmed at 37° C. for 10 minutes. The reaction was started with the addition of 2.5 μL of 100 μM control compound or test compound solutions. Diclofenac was used as positive control in this study. The final concentration of control compound and test compounds was 1 μM. Aliquots of 25 μL were taken from the reaction solution at 0.5, 5, 15, 30 and 60 minutes. The reaction was stopped by the addition of 5 volumes of cold acetonitrile containing internal standards. Samples were centrifuged at 3,220 g for 40 minutes. An aliquot of 100 μL of the supernatant was mixed with 100 μL of ultra-pure H2O and then used for LC-MS/MS analysis. Peak areas were determined from extracted ion chromatograms. Percent parent remaining was calculated from the area ratio of test compound. The slope value was determined by linear regression of the natural logarithm of percent parent remaining versus incubation time curve.
(§1) Peak areas were determined from extracted ion chromatograms to determine the in vitro half-life (t½) of parent compound by regression analysis of the percent parent disappearance vs. time curve. The in vitro half-life (in vitro t½) was determined from the slope value (in vitro t½=−0.693/k). All calculations were carried out using Microsoft Excel.

in vitro [2] = conditions: for hHEPs % remaining: 1 μM
Method: Human Hepatocyte metabolic stability: Human hepatocytes (X008000, BioIVT) were freshly thawed prior to the incubations with test compound. Hepatocytes were transferred to 50 mL conical tubes and centrifuged 10 min at 100 g. Thawing medium was removed and replaced by preheated (37° C.) incubation medium (William's E Medium supplemented with GlutaMAX), to yield a hepatocyte density ˜1.5×10^6 cells/mL. Cell viability was determined using AO/PI staining and hepatocytes were diluted using incubation medium to a working density of 0.5×10^6 viable cells/mL. 198 μL of hepatocytes were added into each well of a 96-well plate and placed in the incubator to allow the hepatocytes to warm for 10 minutes. 2 μL test compound or positive control was placed into respective wells of the 96-well plate (final concentration test compound 1 μM) to start the reaction. The plate was returned to the incubator and 25 μL aliquots of the well contents were removed at time points of 0, 15, 30, 60, 90 and 120 minutes. The aliquots were mixed with 6 volumes (150 μL) of acetonitrile containing internal standards (100 nM alprazolam, 200 nM caffeine, and 100 nM tolbutamide) to terminate the reaction. The plate was centrifuged for 20 minutes at 3,200 g. Aliquots of 150 μL of the supernatants were used for LC/MS/MS analysis. All incubations were performed in duplicate.
as §1

[3] = MOLM-13, 72 hours, bins ≥10 nM-<100 nM and <10 nM

Sequence of recombinant human DHODH (Q02127 whole entry): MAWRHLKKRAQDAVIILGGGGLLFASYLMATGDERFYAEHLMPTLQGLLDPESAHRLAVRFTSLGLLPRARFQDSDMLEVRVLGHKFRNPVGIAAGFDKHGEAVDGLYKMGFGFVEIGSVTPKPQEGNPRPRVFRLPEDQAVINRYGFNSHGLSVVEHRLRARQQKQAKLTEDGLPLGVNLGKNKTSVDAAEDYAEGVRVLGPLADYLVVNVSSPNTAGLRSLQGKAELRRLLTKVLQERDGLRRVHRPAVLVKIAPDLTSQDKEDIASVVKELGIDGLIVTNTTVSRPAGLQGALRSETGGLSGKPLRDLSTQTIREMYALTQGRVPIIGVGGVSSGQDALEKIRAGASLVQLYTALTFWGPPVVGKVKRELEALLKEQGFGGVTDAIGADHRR

| IC50 (recombinant human DHODH) [nM] | IC50 (MOLM-13 cells; [3]) [nM] | HLM % remaining (in vitro [1]) [%] | half-life at 1 μM (in vitro [1]; pooled liver microsomes) [min] | half-life at 1 μM (in vitro [2]; human, hepatocytes) [min] | hHEPs % remaining (in vitro [2]; human, hepatocytes, 2 h) [%] | hHEPs % remaining (in vitro [2]; % remaining at 120 min) [%] | Structure (SMILES) | MOLM13 cell growth and/or viability (FIG. 2) (MOLM-13 cells; absence of uridine) | effect on MOLM13 cell growth and/or viability on addition of excess uridine (FIG. 2) (MOLM-13 cells; presence of 100 μM uridine) | IC50 (MOLM-13 cells; MOLM-13, 72 h) [nM] | half-life at 1 μM (in vitro [1]; microsomes) [min] |
| --- | --- | --- | --- | --- | --- | --- | --- | --- | --- | --- | --- |
| 10 to 100 | 10 to 100 | 92 | > 365 | 598 | 87 | – | O=C(N[C@@H]1COCc2c1cnn2-c1ccccc1F)c1ncn2c1CCCC2 (single isomer, unassigned) [Ex-3] | – | – | – | – |
| 10 to 100 | 10 to 100 | 85 | 285 | 294 | 87 | – | O=C(N[C@@H]1COCc2c1cnn2-c1ccccc1F)c1ncc2n1CCCC2 (single isomer, unassigned) [Ex-6] | – | – | – | – |
| – | – | 88 | 274 | 286 | – | 72 | Cc1cnc(C(=O)N[C@@H]2COCc3c2cnn3-c2ccccc2F)cc1C [Ex-45, (S)—N-(1-(2-fluorophenyl)-1,4,5,7-tetrahydropyrano[3,4-c]pyrazol-4-yl)-4,5-dimethylpicolinamide] | – | – | – | – |
| < 10 | < 10 | 75 | 133 | 540 | – | 84 | O=C(N[C@@H]1COCc2c1cnn2-c1c(F)cccc1Cl)c1ncc2n1CCCC2 [Ex-47, (S)—N-(1-(2-chloro-6-fluorophenyl)-1,4,5,7-tetrahydropyrano[3,4-c]pyrazol-4-yl)-5,6,7,8-tetrahydroimidazo[1,5-a]pyridine-3-carboxamide] | – | – | – | – |
| 10 to 100 | < 10 | 85 | 356 | > 600 | – | 100 | O=C(N[C@@H]1COCc2c1cnn2-c1ccccc1Cl)c1ncn2c1CCCC2 [Ex-51, (S)—N-(1-(2-chlorophenyl)-1,4,5,7-tetrahydropyrano[3,4-c]pyrazol-4-yl)-5,6,7,8-tetrahydroimidazo[1,5-a]pyridine-1-carboxamide] | – | – | – | – |
| 10 to 100 | 10 to 100 | 84 | 271 | > 600 | 100 | – | Cc1ccccc1-n1ncc2c1COC[C@H]2NC(=O)c1ncn2c1CCCC2 [Ex-52, (S)—N-(1-(o-tolyl)-1,4,5,7-tetrahydropyrano[3,4-c]pyrazol-4-yl)-5,6,7,8-tetrahydroimidazo[1,5-a]pyridine-1-carboxamide] | – | – | – | – |
| 10 to 100 | 10 to 100 | 92 | > 365 | > 600 | – | 100 | COc1ccccc1-n1ncc2c1COC[C@H]2NC(=O)c1ncn2c1CCCC2 [Ex-54, (S)—N-(1-(2-methoxyphenyl)-1,4,5,7-tetrahydropyrano[3,4-c]pyrazol-4-yl)-5,6,7,8-tetrahydroimidazo[1,5-a]pyridine-1-carboxamide] | – | – | – | – |
| 10 to 100 | 10 to 100 | 94 | > 365 | > 600 | 100 | – | O=C(N[C@@H]1COCc2c1cnn2-c1ccccc1C(F)(F)F)c1ncn2c1CCCC2 [Ex-55, (S)—N-(1-(2-(trifluoromethyl)phenyl)-1,4,5,7-tetrahydropyrano[3,4-c]pyrazol-4-yl)-5,6,7,8-tetrahydroimidazo[1,5-a]pyridine-1-carboxamide] | – | – | – | – |

The next lines start with the molecule.

| Structure (SMILES) | IC50 (recombinant human DHODH) [nM] | IC50 (MOLM-13 cells; [3]) [nM] | HLM % remaining (in vitro [1]) [%] | half-life at 1 μM (in vitro [1]; pooled liver microsomes) [min] | half-life at 1 μM (in vitro [2]; human, hepatocytes) [min] | hHEPs % remaining (in vitro [2]; human, hepatocytes, 2 h) [%] | hHEPs % remaining (in vitro [2]; % remaining at 120 min) [%] | MOLM13 cell growth and/or viability (FIG. 2) (MOLM-13 cells; absence of uridine) | effect on MOLM13 cell growth and/or viability on addition of excess uridine (FIG. 2) (MOLM-13 cells; presence of 100 μM uridine) | IC50 (MOLM-13 cells; MOLM-13, 72 h) [nM] | half-life at 1 μM (in vitro [1]; microsomes) [min] |
| --- | --- | --- | --- | --- | --- | --- | --- | --- | --- | --- | --- |
| O=C(N[C@@H]1COCc2c1cnn2-c1c(F)cccc1Cl)c1ncn2c1CCCC2 (single isomer, unassigned) [Ex-11] | < 10 | < 10 | 93 | > 365 | > 600 | – | 90 | reduce MOLM13 cell growth and/or viability | largely prevented | – | – |
| O=C(N[C@@H]1COCc2c1cnn2-c1c(Cl)cccc1Cl)c1ncn2c1CCCC2 (single isomer, unassigned) [Ex-13] | < 10 | < 10 | 88 | > 365 | > 600 | – | 95 | – | – | – | – |
| Cc1cccc(Cl)c1-n1ncc2c1COC[C@H]2NC(=O)c1ncn2c1CCCC2 [Ex-34, (S)—N-(1-(2-chloro-6-methylphenyl)-1,4,5,7-tetrahydropyrano[3,4-c]pyrazol-4-yl)-5,6,7,8-tetrahydroimidazo[1,5-a]pyridine-1-carboxamide] | < 10 | – | 100 | – | > 600 | – | 100 | – | – | < 10 | 337 |
| CCc1c(C(=O)N[C@@H]2COCc3c2cnn3-c2ccccc2F)ncn1C [Ex-41, (S)-5-ethyl-N-(1-(2-fluorophenyl)-1,4,5,7-tetrahydropyrano[3,4-c]pyrazol-4-yl)-1-methyl-1H-imidazole-4-carboxamide] | 10 to 100 | 10 to 100 | 100 | > 365 | > 600 | – | 100 | – | – | – | – |
| O=C(N[C@@H]1COCc2c1cnn2-c1c(F)cccc1Cl)c1n[nH]c2c1CCCC2 [Ex-46, (S)—N-(1-(2-chloro-6-fluorophenyl)-1,4,5,7-tetrahydropyrano[3,4-c]pyrazol-4-yl)-4,5,6,7-tetrahydro-1H-indazole-3-carboxamide] | 10 to 100 | 10 to 100 | 90 | > 365 | > 600 | – | 89 | – | – | – | – |
| Cc1cnc(C(=O)N[C@@H]2COCc3c2cnn3-c2c(F)cccc2Cl)cc1C [Ex-48, (S)—N-(1-(2-chloro-6-fluorophenyl)-1,4,5,7-tetrahydropyrano[3,4-c]pyrazol-4-yl)-4,5-dimethylpicolinamide] | 10 to 100 | 10 to 100 | 96 | 365 | 358 | – | 82 | – | – | – | – |
| Cc1ccc(Cl)c(-n2ncc3c2COC[C@H]3NC(=O)c2ncn3c2CCCC3)c1 [Ex-53, (S)—N-(1-(2-chloro-5-methylphenyl)-1,4,5,7-tetrahydropyrano[3,4-c]pyrazol-4-yl)-5,6,7,8-tetrahydroimidazo[1,5-a]pyridine-1-carboxamide] | 10 to 100 | 10 to 100 | 96 | > 365 | > 600 | – | 99 | – | – | – | – |
